Experimental data taken from patent US20240109865A1, “INDAZOLE COMPOUNDS AS KINASE INHIBITORS” (TYRA BIOSCIENCES, INC., priority 2020, published 2024).

Experiments:
Assay in all cases: Kinase assay, binding constants (Kd), kinase-tagged T7 phage, qPCR
FGFR3 (V555M) = FGFR3 (V555M) (Homo sapiens (Human), UniProt P22607, V555M); conditions: V555M mutant
How it was run: (§1)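 Competition binding: kinase-tagged T7 phage lysates mixed with immobilized biotinylated ligand on streptavidin beads plus compound (11-point 3-fold dilution series, 0.9% DMSO final). Bound kinase eluted with free ligand and quantified by qPCR. Kd from Hill equation fit, slope fixed at −1.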

FGFR4 = FGFR4 (Homo sapiens (Human), UniProt P22455)
Sequence of FGFR4 (P22455 22-802): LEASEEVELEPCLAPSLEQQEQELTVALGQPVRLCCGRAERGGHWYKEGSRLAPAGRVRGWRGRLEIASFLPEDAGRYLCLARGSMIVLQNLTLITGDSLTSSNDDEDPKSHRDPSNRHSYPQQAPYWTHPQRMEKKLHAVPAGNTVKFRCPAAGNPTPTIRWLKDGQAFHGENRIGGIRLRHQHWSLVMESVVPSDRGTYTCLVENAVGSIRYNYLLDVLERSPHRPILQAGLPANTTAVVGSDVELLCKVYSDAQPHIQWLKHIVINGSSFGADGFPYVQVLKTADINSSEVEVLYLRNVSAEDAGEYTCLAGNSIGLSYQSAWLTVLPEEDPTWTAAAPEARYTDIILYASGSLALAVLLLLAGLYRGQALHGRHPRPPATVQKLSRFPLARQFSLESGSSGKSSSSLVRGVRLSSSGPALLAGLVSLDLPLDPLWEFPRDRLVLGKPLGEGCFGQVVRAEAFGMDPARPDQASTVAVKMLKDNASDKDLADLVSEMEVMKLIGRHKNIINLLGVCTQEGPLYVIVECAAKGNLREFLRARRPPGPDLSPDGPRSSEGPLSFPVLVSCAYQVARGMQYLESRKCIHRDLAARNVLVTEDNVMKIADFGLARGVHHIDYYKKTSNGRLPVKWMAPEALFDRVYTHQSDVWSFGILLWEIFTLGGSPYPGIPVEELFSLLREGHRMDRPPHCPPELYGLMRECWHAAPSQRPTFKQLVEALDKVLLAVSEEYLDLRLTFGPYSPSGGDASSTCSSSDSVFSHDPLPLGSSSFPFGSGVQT
How it was run: as §1

FGFR3 = FGFR3 (Homo sapiens (Human), UniProt P22607)
Sequence of FGFR3 (P22607 23-806): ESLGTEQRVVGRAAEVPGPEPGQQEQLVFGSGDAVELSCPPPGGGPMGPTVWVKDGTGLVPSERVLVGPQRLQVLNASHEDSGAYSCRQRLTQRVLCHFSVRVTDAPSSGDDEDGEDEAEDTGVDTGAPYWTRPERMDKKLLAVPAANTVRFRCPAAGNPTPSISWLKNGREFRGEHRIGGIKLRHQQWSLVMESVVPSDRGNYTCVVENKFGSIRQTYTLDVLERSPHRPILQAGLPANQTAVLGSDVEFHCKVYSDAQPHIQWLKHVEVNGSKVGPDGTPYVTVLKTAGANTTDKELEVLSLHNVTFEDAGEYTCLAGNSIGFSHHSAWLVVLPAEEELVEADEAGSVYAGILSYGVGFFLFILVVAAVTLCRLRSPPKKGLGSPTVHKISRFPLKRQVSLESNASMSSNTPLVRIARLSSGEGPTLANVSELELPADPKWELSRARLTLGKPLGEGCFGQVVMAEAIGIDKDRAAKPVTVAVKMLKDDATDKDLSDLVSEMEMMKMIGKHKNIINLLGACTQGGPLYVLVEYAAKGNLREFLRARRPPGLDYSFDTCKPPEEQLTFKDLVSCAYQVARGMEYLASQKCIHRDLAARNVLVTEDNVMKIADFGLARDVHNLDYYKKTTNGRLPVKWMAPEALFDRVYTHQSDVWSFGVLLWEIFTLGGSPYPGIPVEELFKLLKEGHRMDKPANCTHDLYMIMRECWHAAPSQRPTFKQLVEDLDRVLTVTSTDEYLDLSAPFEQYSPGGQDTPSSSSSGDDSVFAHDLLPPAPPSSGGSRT
How it was run: as §1

FGFR2 = FGFR2 (Homo sapiens (Human), UniProt P21802)
Sequence of FGFR2 (P21802 22-821): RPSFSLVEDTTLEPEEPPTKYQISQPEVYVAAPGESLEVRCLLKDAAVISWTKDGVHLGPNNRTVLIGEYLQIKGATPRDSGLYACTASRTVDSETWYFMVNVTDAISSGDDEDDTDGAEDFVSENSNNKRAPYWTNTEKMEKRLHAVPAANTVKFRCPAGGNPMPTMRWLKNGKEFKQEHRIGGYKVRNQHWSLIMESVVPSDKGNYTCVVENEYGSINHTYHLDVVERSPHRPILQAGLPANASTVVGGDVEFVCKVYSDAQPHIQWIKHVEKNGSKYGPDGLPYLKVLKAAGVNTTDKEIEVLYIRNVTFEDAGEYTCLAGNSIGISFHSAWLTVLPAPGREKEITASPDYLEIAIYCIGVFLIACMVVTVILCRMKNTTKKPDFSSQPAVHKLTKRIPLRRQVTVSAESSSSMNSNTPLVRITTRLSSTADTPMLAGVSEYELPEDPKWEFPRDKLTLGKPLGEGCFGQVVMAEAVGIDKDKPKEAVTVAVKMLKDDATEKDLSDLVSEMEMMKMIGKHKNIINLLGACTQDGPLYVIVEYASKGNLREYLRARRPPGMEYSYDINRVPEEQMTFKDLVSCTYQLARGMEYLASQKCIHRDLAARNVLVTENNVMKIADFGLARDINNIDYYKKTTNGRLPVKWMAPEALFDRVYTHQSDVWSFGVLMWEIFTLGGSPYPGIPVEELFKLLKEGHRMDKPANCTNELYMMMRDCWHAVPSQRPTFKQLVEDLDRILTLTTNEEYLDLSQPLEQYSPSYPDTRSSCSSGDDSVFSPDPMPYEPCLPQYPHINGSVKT
How it was run: as §1

FGFR1 = FGFR1 (Homo sapiens (Human), UniProt P11362)
Sequence of FGFR1 (P11362 22-822): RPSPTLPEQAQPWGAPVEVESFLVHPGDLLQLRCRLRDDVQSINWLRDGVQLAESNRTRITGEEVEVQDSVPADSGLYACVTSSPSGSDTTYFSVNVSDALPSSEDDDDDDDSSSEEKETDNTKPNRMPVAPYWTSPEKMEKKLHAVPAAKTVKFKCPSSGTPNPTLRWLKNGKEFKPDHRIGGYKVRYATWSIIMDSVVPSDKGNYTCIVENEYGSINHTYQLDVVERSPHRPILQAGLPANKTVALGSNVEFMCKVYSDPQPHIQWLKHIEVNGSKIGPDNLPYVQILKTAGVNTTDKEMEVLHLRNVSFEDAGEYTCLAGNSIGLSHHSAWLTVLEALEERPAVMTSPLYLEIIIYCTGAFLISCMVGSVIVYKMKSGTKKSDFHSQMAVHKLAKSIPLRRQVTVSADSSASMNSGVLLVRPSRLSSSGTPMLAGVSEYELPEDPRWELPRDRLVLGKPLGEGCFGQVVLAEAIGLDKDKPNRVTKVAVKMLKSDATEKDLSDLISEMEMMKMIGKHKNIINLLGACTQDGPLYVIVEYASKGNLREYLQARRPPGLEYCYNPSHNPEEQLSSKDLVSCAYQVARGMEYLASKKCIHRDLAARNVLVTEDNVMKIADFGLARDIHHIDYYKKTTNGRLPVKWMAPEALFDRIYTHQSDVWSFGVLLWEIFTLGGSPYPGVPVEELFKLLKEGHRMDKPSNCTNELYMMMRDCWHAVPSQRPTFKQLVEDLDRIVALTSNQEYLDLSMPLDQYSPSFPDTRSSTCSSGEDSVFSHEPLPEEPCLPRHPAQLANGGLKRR
How it was run: as §1

Sequence of FGFR3 (V555M) (P22607 23-806 V555M): as the sequence (P22607 23-806) above, with V533M counted along it

Row | SMILES | Kd (FGFR3 (V555M)) [nM] | Kd (FGFR4) [nM] | Kd (FGFR3) [nM] | Kd (FGFR2) [nM] | Kd (FGFR1) [nM]
1 | C[C@@H](Oc1cc2c(-c3cnc(N4CCC4)c(CN(C)C)c3)n[nH]c2cc1Cl)c1c(Cl)cncc1Cl [Example 366, (R)-1-(2-(azetidin-1-yl)-5-(6-chloro-5-(1-(3,5-dichloropyridin-4-yl)ethoxy)-1H-indazol-3-yl)pyridin-3-yl)-N,N-dimethylmethanamine] | 20 to 100 | 1 to 20 | 20 to 100 | > 300 | 100 to 300
2 | C[C@@H](Oc1ccc2[nH]nc(-c3ccc(N4CC(C#N)C4)nc3)c2c1)c1c(Cl)cncc1Cl [Example 253, (R)-1-(5-(5-(1-(3,5-dichloropyridin-4-yl)ethoxy)-1H-indazol-3-yl)pyridin-2-yl)azetidine-3-carbonitrile] | 1 to 20 | 1 to 20 | 1 to 20 | 1 to 20 | 1 to 20
3 | C[C@@H](Oc1cc2c(-c3cnc(N4CC5(C4)CN(S(C)(=O)=O)C5)c(C#N)c3)n[nH]c2cc1Cl)c1c(Cl)cncc1Cl [Example 359, (R)-5-(6-chloro-5-(1-(3,5-dichloropyridin-4-yl)ethoxy)-1H-indazol-3-yl)-2-(6-(methylsulfonyl)-2,6-diazaspiro[3.3]heptan-2-yl)nicotinonitrile] | > 300 | 1 to 20 | 1 to 20 | 20 to 100 | 20 to 100
4 | C[C@H](Oc1ccc2[nH]nc(-c3cnc(N4CC(O)C4)c(C#N)c3)c2c1)c1c(Cl)cnc(F)c1Cl [Example 291, (S)-5-(5-(1-(3,5-dichloro-2-fluoropyridin-4-yl)ethoxy)-1H-indazol-3-yl)-2-(3-hydroxyazetidin-1-yl)nicotinonitrile] | > 300 | > 300 | > 300 | > 300 | > 300
5 | C[C@@H](Oc1cc2c(-c3cnc(N4CC5(CCCS(=O)(=O)C5)C4)c(C#N)c3)n[nH]c2cc1F)c1c(Cl)cncc1Cl [Example 362] | 1 to 20 | 1 to 20 | 1 to 20 | 100 to 300 | 20 to 100
6 | COc1cc2[nH]nc(-c3cnc(N4CC[C@@H](C(C)(C)O)C4)c(C#N)c3)c2cc1O[C@H](C)c1c(C)cnnc1C [Example 321, 5-(5-((R)-1-(3,5-dimethylpyridazin-4-yl)ethoxy)-6-methoxy-1H-indazol-3-yl)-2-((R)-3-(2-hydroxypropan-2-yl)pyrrolidin-1-yl)nicotinonitrile] | 1 to 20 | 1 to 20 | 1 to 20 | 1 to 20 | 20 to 100
7 | C[C@@H](Oc1ccc2[nH]nc(-c3cnn(C4CCN(C(=O)CN(C)C)CC4)c3)c2c1)c1c(Cl)cncc1Cl [Example 81, 1-[4-[4-[5-[(1R)-1-(3,5-dichloro-4-pyridyl)ethoxy]-1H-indazol-3-yl]pyrazol-1-yl]-1-piperidyl]-2-(dimethylamino)ethanone] | 1 to 20 | 1 to 20 | 1 to 20 | 1 to 20 | 1 to 20
8 | Cc1cnnc(C)c1[C@@H](C)Oc1ccc2[nH]nc(-c3cnc(N4CC[C@H](O)C4)c(C#N)c3)c2c1 [Example 306, 5-(5-((R)-1-(3,5-dimethylpyridazin-4-yl)ethoxy)-1H-indazol-3-yl)-2-((S)-3-hydroxypyrrolidin-1-yl)nicotinonitrile] | 1 to 20 | 1 to 20 | 20 to 100 | 20 to 100 | 100 to 300
9 | COc1cc2[nH]nc(-c3cnc(N4CC[C@H](O)C4)c(C#N)c3)c2cc1O[C@H](C)c1c(C)cnnc1C [Example 311, 5-(5-((R)-1-(3,5-dimethylpyridazin-4-yl)ethoxy)-6-methoxy-1H-indazol-3-yl)-2-((S)-3-hydroxypyrrolidin-1-yl)nicotinonitrile] | 1 to 20 | 1 to 20 | 20 to 100 | 20 to 100 | 20 to 100
10 | C[C@@H](Oc1ccc2[nH]nc(-c3cnc(N4CC5(CCS(=O)(=O)C5)C4)c(C#N)c3)c2c1)c1c(Cl)cncc1Cl [Example 343, (R)-5-(5-(1-(3,5-dichloropyridin-4-yl)ethoxy)-1H-indazol-3-yl)-2-(6,6-dioxido-6-thia-2-azaspiro[3.4]octan-2-yl)nicotinonitrile] | 1 to 20 | 1 to 20 | 1 to 20 | 20 to 100 | 20 to 100
11 | C[C@@H]1CCN1c1ncc(-c2n[nH]c3cc(Cl)c(O[C@H](C)c4c(Cl)cncc4Cl)cc23)cc1C#N [Example 374, 5-(6-chloro-5-((R)-1-(3,5-dichloropyridin-4-yl)ethoxy)-1H-indazol-3-yl)-2-((R)-2-methylazetidin-1-yl)nicotinonitrile] | 20 to 100 | 20 to 100 | 100 to 300 | > 300 | > 300
12 | COc1cc2[nH]nc(-c3cnc(N4CCC4)c(S(C)(=O)=O)c3)c2cc1O[C@H](C)c1c(Cl)cncc1Cl [Example 367, (R)-3-(6-(azetidin-1-yl)-5-(methylsulfonyl)pyridin-3-yl)-5-(1-(3,5-dichloropyridin-4-yl)ethoxy)-6-methoxy-1H-indazole] | 20 to 100 | 20 to 100 | 100 to 300 | > 300 | > 300
13 | CCN1CC[C@H](n2cc(-c3n[nH]c4ccc(O[C@H](C)c5c(Cl)cncc5Cl)cc34)cn2)C1 [Example 89, 5-[(1R)-1-(3,5-dichloro-4-pyridyl)ethoxy]-3-[1-[(3S)-1-ethylpyrrolidin-3-yl]pyrazol-4-yl]-1H-indazole] | 1 to 20 | 20 to 100 | 1 to 20 | 1 to 20 | 1 to 20
14 | COc1cc2[nH]nc(-c3cnc(N4CC[C@H](O)C4)c(C#N)c3)c2cc1O[C@H](C)c1c(Cl)cncc1Cl [Example 327, 5-[5-[(1R)-1-(3,5-dichloro-4-pyridyl)ethoxy]-6-methoxy-1H-indazol-3-yl]-2-[(3S)-3-hydroxypyrrolidin-1-yl]pyridine-3-carbonitrile] | 1 to 20 | 1 to 20 | 1 to 20 | 1 to 20 | 1 to 20
15 | C[C@@H](Oc1ccc2[nH]nc(-c3ccc(N4CC5(C4)CN(S(C)(=O)=O)C5)nc3)c2c1)c1cc(F)cc(F)c1 [Example 172, 5-[(1R)-1-(3,5-difluorophenyl)ethoxy]-3-[6-(2-methylsulfonyl-2,6-diazaspiro[3.3]heptan-6-yl)-3-pyridyl]-1H-indazole] | 1 to 20 | 20 to 100 | 1 to 20 | 20 to 100 | 100 to 300
16 | Cc1cnnc(C)c1[C@@H](C)Oc1ccc2[nH]nc(-c3cnc(N4CCC[C@H]4CO)c(C#N)c3)c2c1 [Example 336, 5-(5-((R)-1-(3,5-dimethylpyridazin-4-yl)ethoxy)-1H-indazol-3-yl)-2-((S)-2-(hydroxymethyl)pyrrolidin-1-yl)nicotinonitrile] | 1 to 20 | 1 to 20 | 20 to 100 | 20 to 100 | 20 to 100
17 | Cc1cnnc(C)c1[C@@H](C)Oc1ccc2[nH]nc(-c3cnc(N4CC[C@@H](C(C)(C)O)C4)c(C#N)c3)c2c1 [Example 307, 5-(5-((R)-1-(3,5-dimethylpyridazin-4-yl)ethoxy)-1H-indazol-3-yl)-2-((R)-3-(2-hydroxypropan-2-yl)pyrrolidin-1-yl)nicotinonitrile] | 1 to 20 | 1 to 20 | 20 to 100 | 20 to 100 | 100 to 300
